Test results reported in ChEMBL document CHEMBL1201862, “PubChem BioAssay data set” (2004).
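In this assay, cells in 96-well plates receive the compound at five concentrations for 48 hours. Endpoints are linearly interpolated between the surrounding concentrations. GI50 marks 50% less growth.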 The source made the active and inactive calls. Rule as the data show it: active = GI50 up to about 1.1 µM and inactive = higher. Where a SMILES comes first, the peptide text is derived from it. The star is where a group is joined. Cbz = O=C(OCc1ccccc1)*; Bn = c1ccc(C*)cc1

Key:
Test in all cases: NCI anticancer screen, dose series, 48 h
[1] = system: SK-MEL-5
[2] = system: RPMI-8226
[3] = system: EKVX
[4] = system: RXF 393
[5] = system: OVCAR-3
[6] = system: KM12
[7] = system: HOP-62
[8] = system: A549
[9] = system: NCI-H522
[10] = system: HCC 2998
[11] = system: HL-60
[12] = system: U-251
[13] = system: SR
[14] = system: NCI-H23
[15] = system: NCI-H226
[16] = system: CAKI-1
[17] = system: IGROV-1
[18] = system: UO-31
[19] = system: CCRF-CEM
[20] = system: SF-539

SMILES	GI50 [1]	GI50 [2]	GI50 [3]	GI50 [4]	GI50 [5]	GI50 [6]	GI50 [7]	GI50 [8]	GI50 [9]	GI50 [10]	GI50 [11]	GI50 [12]	GI50 [13]	GI50 [14]	GI50 [15]	GI50 [16]	GI50 [17]	GI50 [18]	GI50 [19]	GI50 [20]
COc1ccc(/C=N/n2cnc3[nH]c(C)c(Cc4ccccc4)c3c2=N)cc1	> 100 µM (inactive)	34.8 µM (inactive)	> 100 µM (inactive)	19.2 µM (inactive)	> 100 µM (inactive)	> 100 µM (inactive)	> 100 µM (inactive)	89.5 µM (inactive)	65 µM (inactive)	> 100 µM (inactive)	> 100 µM (inactive)	86.1 µM (inactive)	> 100 µM (inactive)	53.1 µM (inactive)	> 100 µM (inactive)	> 100 µM (inactive)	39.7 µM (inactive)	> 100 µM (inactive)	54.3 µM (inactive)	
O=P(O)(O)CN1CCN(CP(=O)(O)O)CCN(CP(=O)(O)O)CCN(CP(=O)(O)O)CC1	> 10 µM (inactive)	21.2 µM (inactive)	> 100 µM (inactive)	47.4 µM (inactive)	> 100 µM (inactive)	41.8 µM (inactive)	> 100 µM (inactive)	58.5 µM (inactive)	90.4 µM (inactive)	88.7 µM (inactive)	25.4 µM (inactive)	45.6 µM (inactive)	10.5 µM (inactive)	55.6 µM (inactive)	> 100 µM (inactive)	> 100 µM (inactive)	> 100 µM (inactive)	> 100 µM (inactive)	44.9 µM (inactive)	70.5 µM (inactive)
CC(C)(C)c1cc(C(=O)/C=C/c2ccc(C(=O)O)cc2)cc(C(C)(C)C)c1	3.99 µM (inactive)	1.16 µM (inactive)	3.19 µM (inactive)	1.5 µM (inactive)	2.35 µM (inactive)	2.4 µM (inactive)	2.32 µM (inactive)	2.07 µM (inactive)	4.34 µM (inactive)	1.82 µM (inactive)	3.51 µM (inactive)	3.13 µM (inactive)	2.4 µM (inactive)		1.53 µM (inactive)	3.86 µM (inactive)	3.8 µM (inactive)	5.47 µM (inactive)	2.91 µM (inactive)	1.36 µM (inactive)
COc1cc(OC)c2nc(C)c3c(c2c1)OCC3	> 100 µM (inactive)	> 100 µM (inactive)	75.2 µM (inactive)	22.6 µM (inactive)	> 100 µM (inactive)	> 100 µM (inactive)	37.7 µM (inactive)	> 100 µM (inactive)	72.9 µM (inactive)	> 100 µM (inactive)	> 100 µM (inactive)	35 µM (inactive)	> 100 µM (inactive)	> 100 µM (inactive)	> 100 µM (inactive)	19.8 µM (inactive)	> 100 µM (inactive)	> 100 µM (inactive)	> 100 µM (inactive)	86.7 µM (inactive)
Nc1c2c(=O)[nH]c(=O)c2c(N)c2c(=O)c3ccccc3c(=O)c12	0.179 µM (active)	2.05 µM (inactive)	3.17 µM (inactive)	3.57 µM (inactive)	0.684 µM (active)	1.83 µM (inactive)	3.13 µM (inactive)	0.897 µM (active)	3.35 µM (inactive)	4.48 µM (inactive)	2 µM (inactive)	3.61 µM (inactive)	2.74 µM (inactive)	0.76 µM (active)	1.85 µM (inactive)	3.5 µM (inactive)	1.65 µM (inactive)	3.81 µM (inactive)	2.93 µM (inactive)	2.04 µM (inactive)
O=CC1C(Cl)=Nc2nc3ccccc3n2C1c1ccc([N+](=O)[O-])cc1 (configuration not stated)	6.68 µM (inactive)	3.77 µM (inactive)	24.1 µM (inactive)	2.93 µM (inactive)	3.85 µM (inactive)	24.8 µM (inactive)	8.28 µM (inactive)	25.2 µM (inactive)	3.71 µM (inactive)	14 µM (inactive)	3.28 µM (inactive)	5.52 µM (inactive)	2.16 µM (inactive)	7.96 µM (inactive)	3.33 µM (inactive)	3.09 µM (inactive)	12.3 µM (inactive)	3.88 µM (inactive)	3.11 µM (inactive)	20.2 µM (inactive)
COc1ccc2c(c1)CCC(CN1CCN(CCOC(c3ccccc3)c3ccccc3)CC1)C2O (configuration not stated)	8.3 µM (inactive)	11 µM (inactive)	11.1 µM (inactive)	14.1 µM (inactive)	15.3 µM (inactive)	18.3 µM (inactive)	19 µM (inactive)	18.2 µM (inactive)	16.6 µM (inactive)	4.28 µM (inactive)	2.81 µM (inactive)	14.8 µM (inactive)	16.7 µM (inactive)	15.1 µM (inactive)	16.3 µM (inactive)	15.7 µM (inactive)	15.4 µM (inactive)	15.4 µM (inactive)	16.3 µM (inactive)	11.3 µM (inactive)
C=CCOCC1C2CCC3(OCCO3)C21 (configuration not stated)	> 100 µM (inactive)	> 100 µM (inactive)	> 100 µM (inactive)	> 100 µM (inactive)	> 100 µM (inactive)	> 100 µM (inactive)	> 100 µM (inactive)	> 100 µM (inactive)	> 100 µM (inactive)	> 100 µM (inactive)		> 100 µM (inactive)	> 100 µM (inactive)	48.5 µM (inactive)	> 100 µM (inactive)	30.4 µM (inactive)	> 100 µM (inactive)	19.1 µM (inactive)	99.5 µM (inactive)	> 100 µM (inactive)
Cn1cc(C(=O)c2ccccc2)ccc1=O	> 100 µM (inactive)	> 100 µM (inactive)	> 100 µM (inactive)	> 100 µM (inactive)	> 100 µM (inactive)	> 100 µM (inactive)	> 100 µM (inactive)	> 100 µM (inactive)	> 100 µM (inactive)	> 100 µM (inactive)	> 100 µM (inactive)	> 100 µM (inactive)	> 100 µM (inactive)	> 100 µM (inactive)	> 100 µM (inactive)	> 100 µM (inactive)	> 100 µM (inactive)	> 100 µM (inactive)	> 100 µM (inactive)	> 100 µM (inactive)
COC(=O)C(Cc1ccc(O)cc1)NC(=O)C(COCc1ccccc1)NC(=O)OCc1ccccc1 (configuration not stated) (Cbz-Ser(Bn)-Tyr-OMe; configuration not given here)	17 µM (inactive)	74.6 µM (inactive)	22.5 µM (inactive)	18.7 µM (inactive)	17.7 µM (inactive)	19.8 µM (inactive)	19 µM (inactive)	19.4 µM (inactive)	22.5 µM (inactive)	4.06 µM (inactive)	> 100 µM (inactive)	18.7 µM (inactive)	> 100 µM (inactive)	20.1 µM (inactive)	20.1 µM (inactive)	20.2 µM (inactive)	17.6 µM (inactive)	21.9 µM (inactive)	71.4 µM (inactive)	18.8 µM (inactive)
